Measurements taken from US20240261249A1, “NOVEL SQUARAMIDE DERIVATIVE AND USE THEREOF” (PUSAN NATIONAL UNIVERSITY INDUSTRY-UNIVERSITY COOPERATION …, priority 2021, published 2024).
Read-outs that look alike come from different tables or passages of the source.

Columns and labels:
Type in all cases: cell-based
[1] = system: PBMC (peripheral blood monocyte cells isolated from normal donors); experiment: CCK-8 assay, PBMC (normal cells); settings: for IC50: 72 h, PBMC normal cells, culture for 3 days, CCK-8, tested 0-20 μM; for SI (selectivity index): K562 cells compared to PBMC
Procedure: PBMC (peripheral blood monocyte cells isolated from normal donors) cell lines were dispensed in RPMI medium supplemented with 10% FBS and 1% ABAM at 37° C. in the presence of 5% CO2, and then the test compounds were treated at concentrations of 0 μM, 1.25 μM, 2.5 μM, 5 μM, 10 μM, and 20 μM, respectively. After culture for 3 days, 10 μL of CCK-8 solution was treated and cultured for 4 hours. Subsequently, the absorbance at 450 nm was measured to obtain the IC50 value of each compound.

K562 cell line = experiment: CCK-8 anti-proliferative assay, K562; settings: Homo sapiens, 72 h, K562, culture for 3 days
Procedure: CCK-8 assay (cell counting kit-8 assay, Dojindo, Kumamoto, Japan) was performed. The K562 cell line was cultured in RPMI medium supplemented with 10% FBS and 1% ABAM at 37° C. in the presence of 5% CO2. Cells were treated with test compounds at concentrations of 0 μM, 1.25 μM, 2.5 μM, 5 μM, 10 μM, and 20 μM, respectively. After culture for 3 days, 10 μL of CCK-8 solution was treated and cultured for 4 hours. Subsequently, the absorbance was measured at 450 nm to obtain the IC50 value of each compound.
The experimental values for the K562 cell line are identical to biological Example 2.

Phospho-eIF2α (Ser51) = Phospho-eIF2α (Ser51) Sandwich ELISA in K562 cells; settings: Homo sapiens, K562, 6 h, serum-free RPMI, 10 μM compound, control = 1, read-out: eIF2α phosphorylation, absorbance standardized to control (DMSO-treated) set to 1, at 10 μM
Procedure: Pathscan Phospho-eIF2α (Ser51) Sandwich ELISA Kit #7286 from Cell signaling was used. The K562 cell line was cultured in serum-free RPMI medium at 37° C. in the presence of 5% CO2. Cells were treated with test compounds at a concentration of 10 μM. Six hours after compound treatment, the cells were lysed with a lysis buffer included in the kit to obtain 50 μg of protein by quantification. Afterwards, ELISA assay was performed according to the manufacturer's protocol to obtain absorbance. The absorbance for each obtained compound was standardized to a value of which the control (DMSO-treated) is set to 1.

[2] = CCK-8, Table 3 (identical to Example 2), tested 0-20 μM, read-out: IC50 K562

| IC50 (K562 cell line; CCK-8, Table 2, read-out: IC50) [µM] | IC50 (K562 cell line; [2]) [µM] | Compound | IC50 [1] [µM] | SI (selectivity index) [1] | activity at 10 µM (Phospho-eIF2α (Ser51)) [%] |
| --- | --- | --- | --- | --- | --- |
| 12.2 | 12.2 | O=c1c(Nc2cccc(C(F)(F)F)c2)c(N[C@H]2CC[C@H](Oc3ccc([N+](=O)[O-])cc3)CC2)c1=O [Compound 25, 3-(((1,4-trans)-4-(4-Nitrophenoxy)cyclohexyl)amino)-4-((3-(trifluoromethyl)phenyl)amino)cyclobut-3-ene-1,2-dione] | 16 | 1.27 | 140 |
| 5.69 | 5.69 | CC(C)(C)c1cccc(Nc2c(N[C@H]3CC[C@H](Oc4ccc(S(C)(=O)=O)cc4)CC3)c(=O)c2=O)c1 [Compound 31, 3-((3-(tert-Butyl)phenyl)amino)-4-(((1,4-trans)-4-(4-(methylsulfonyl)phenoxy)cyclohexyl)amino)cyclobut-3-ene-1,2-dione] | 35.1 | 6.10 | 150 |
| 4.09 | 4.09 | CC(C)(C)c1cccc(Nc2c(N[C@H]3CC[C@H](Oc4ccc(C#N)cc4)CC3)c(=O)c2=O)c1 [Compound 29, 4-(((1,4-trans)-4-((2-((3-(tert-Butyl)phenyl)amino)-3,4-dioxocyclobut-1-en-1-yl)amino)cyclohexyl)oxy)benzonitrile] | 17 | 3.82 | 176 |
| > 20 |  | CS(=O)(=O)c1ccc(O[C@H]2CC[C@H](Nc3c(Nc4ccc(C(F)(F)F)cc4)c(=O)c3=O)CC2)cc1 [Compound 49, 3-(((1,4-trans)-4-(4-(Methylsulfonyl)phenoxy)cyclohexyl)amino)-4-((4-(trifluoromethyl)phenyl)amino)cyclobut-3-ene-1,2-dione] |  |  | 102 |
| 6.8 | 6.8 | CC(C)(C)c1cccc(Nc2c(N[C@H]3CC[C@H](Oc4ccc(C(F)(F)F)cc4)CC3)c(=O)c2=O)c1 [Compound 28, 3-((3-(tert-Butyl)phenyl)amino)-4-(((1,4-trans)-4-(4-(trifluoromethyl)phenoxy)cyclohexyl)amino)cyclobut-3-ene-1,2-dione] | 19.4 | 2.86 |  |
| > 20 |  | O=c1c(Nc2ccccc2C(F)(F)F)c(N[C@H]2CC[C@H](Oc3ccc(C(F)(F)F)cc3)CC2)c1=O [Compound 70, 3-(((1,4-trans)-4-(4-(Trifluoromethyl)phenoxy)cyclohexyl)amino)-4-((2-(trifluoromethyl)phenyl)amino)cyclobut-3-ene-1,2-dione] |  |  | 194 |
| > 20 |  | O=c1c(Nc2ccccc2C(F)(F)F)c(N[C@H]2CC[C@H](Oc3ccc([N+](=O)[O-])cc3)CC2)c1=O [Compound 72, 3-(((1,4-trans)-4-(4-Nitrophenoxy)cyclohexyl)amino)-4-((2-(trifluoromethyl)phenyl)amino)cyclobut-3-ene-1,2-dione] |  |  | 149 |
| > 20 |  | CS(=O)(=O)c1ccc(O[C@H]2CC[C@H](Nc3c(Nc4cccc(C(F)(F)F)c4)c(=O)c3=O)CC2)cc1 [Compound 26, 3-(((1,4-trans)-4-(4-(Methylsulfonyl)phenoxy)cyclohexyl)amino)-4-((3-(trifluoromethyl)phenyl)amino)cyclobut-3-ene-1,2-dione] |  |  | 133 |
| > 20 |  | N#Cc1ccc(O[C@H]2CC[C@H](Nc3c(Nc4cccc(Cl)c4)c(=O)c3=O)CC2)cc1 [Compound 19, 4-(((1,4-trans)-4-((2-((3-Chlorophenyl)amino)-3,4-dioxocyclobut-1-en-1-yl)amino)cyclohexyl)oxy)benzonitrile] |  |  | 111 |
| > 20 |  | COc1cccc(Nc2c(N[C@H]3CC[C@H](Oc4ccc([N+](=O)[O-])cc4)CC3)c(=O)c2=O)c1 [Compound 35, 3-((3-Methoxyphenyl)amino)-4-(((1,4-trans)-4-(4-nitrophenoxy)cyclohexyl)amino)cyclobut-3-ene-1,2-dione] |  |  | 105 |
